The record followed here is publication PMC5791972 (PLoS ONE, 2018).

One series concerns C57/BL6 mice. Put plainly: Standard elevated plus maze. Particulars: 3 mg/kg oral, 60 min prior.
A short description of series [1]: Standard elevated plus maze. Particulars: male, C57/BL6, mouse, in vivo, 3 mg/kg.
A further series deals with C57BL/6J mice. Put plainly: Pavlovian fear learning and memory, non-manipulated mice. Format: in vivo, mouse. Particulars: 1 or 3 mg/kg oral, 2 h before.
Another series concerns the target T1, M4 (h) (Homo sapiens, UniProt P08173).
T1 sequence (P08173 1-479): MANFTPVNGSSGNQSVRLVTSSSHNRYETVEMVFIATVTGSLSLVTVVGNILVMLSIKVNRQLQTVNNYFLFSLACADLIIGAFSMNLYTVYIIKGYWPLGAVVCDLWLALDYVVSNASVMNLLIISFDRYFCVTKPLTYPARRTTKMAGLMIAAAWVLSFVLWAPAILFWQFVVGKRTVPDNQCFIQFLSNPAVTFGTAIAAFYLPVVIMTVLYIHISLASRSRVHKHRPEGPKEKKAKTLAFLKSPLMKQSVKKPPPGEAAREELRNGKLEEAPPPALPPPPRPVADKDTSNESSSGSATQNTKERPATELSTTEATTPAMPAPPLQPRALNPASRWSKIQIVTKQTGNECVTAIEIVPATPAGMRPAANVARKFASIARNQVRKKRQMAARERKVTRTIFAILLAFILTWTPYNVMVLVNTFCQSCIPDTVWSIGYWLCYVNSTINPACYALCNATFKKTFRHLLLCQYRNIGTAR
Put plainly: biochemical.

The next series concerns the target κ (KOP) (Rattus norvegicus, UniProt P34975). Put plainly: biochemical.
The test system of series [2] is sigma (non-selective) (h). Format: binding, human. Particulars: 1.0E-06 M.
The next series has as its target T2, PDE6 (non-selective) (Bos taurus, UniProt P11541+P23439).
T2 construct: PDE6 bovine [3H]cGMP; tissue Cerep (contract assay); host or cells: bovine retina
T2 sequence (P11541 2-856 limits assumed): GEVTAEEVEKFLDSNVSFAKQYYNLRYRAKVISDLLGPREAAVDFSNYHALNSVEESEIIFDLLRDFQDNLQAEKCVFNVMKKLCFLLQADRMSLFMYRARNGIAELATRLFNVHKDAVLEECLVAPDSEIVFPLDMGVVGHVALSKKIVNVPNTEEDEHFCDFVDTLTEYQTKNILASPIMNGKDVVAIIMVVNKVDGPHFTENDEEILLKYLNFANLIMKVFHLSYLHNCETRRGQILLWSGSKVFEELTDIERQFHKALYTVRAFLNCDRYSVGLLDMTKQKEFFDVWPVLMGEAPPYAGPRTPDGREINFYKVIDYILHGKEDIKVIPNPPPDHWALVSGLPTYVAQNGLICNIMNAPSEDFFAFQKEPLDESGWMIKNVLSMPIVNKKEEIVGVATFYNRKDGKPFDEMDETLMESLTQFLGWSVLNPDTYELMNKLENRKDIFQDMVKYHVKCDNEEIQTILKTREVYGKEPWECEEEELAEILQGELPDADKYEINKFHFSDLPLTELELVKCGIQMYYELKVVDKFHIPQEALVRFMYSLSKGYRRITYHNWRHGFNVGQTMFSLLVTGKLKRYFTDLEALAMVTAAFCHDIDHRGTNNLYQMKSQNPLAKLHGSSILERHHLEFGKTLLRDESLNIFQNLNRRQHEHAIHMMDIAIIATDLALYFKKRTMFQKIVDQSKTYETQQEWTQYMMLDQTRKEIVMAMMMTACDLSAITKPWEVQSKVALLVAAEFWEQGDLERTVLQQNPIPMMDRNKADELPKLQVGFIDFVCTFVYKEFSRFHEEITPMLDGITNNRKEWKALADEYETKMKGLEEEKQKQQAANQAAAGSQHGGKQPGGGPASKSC
T2 sequence (P23439 2-850 limits assumed): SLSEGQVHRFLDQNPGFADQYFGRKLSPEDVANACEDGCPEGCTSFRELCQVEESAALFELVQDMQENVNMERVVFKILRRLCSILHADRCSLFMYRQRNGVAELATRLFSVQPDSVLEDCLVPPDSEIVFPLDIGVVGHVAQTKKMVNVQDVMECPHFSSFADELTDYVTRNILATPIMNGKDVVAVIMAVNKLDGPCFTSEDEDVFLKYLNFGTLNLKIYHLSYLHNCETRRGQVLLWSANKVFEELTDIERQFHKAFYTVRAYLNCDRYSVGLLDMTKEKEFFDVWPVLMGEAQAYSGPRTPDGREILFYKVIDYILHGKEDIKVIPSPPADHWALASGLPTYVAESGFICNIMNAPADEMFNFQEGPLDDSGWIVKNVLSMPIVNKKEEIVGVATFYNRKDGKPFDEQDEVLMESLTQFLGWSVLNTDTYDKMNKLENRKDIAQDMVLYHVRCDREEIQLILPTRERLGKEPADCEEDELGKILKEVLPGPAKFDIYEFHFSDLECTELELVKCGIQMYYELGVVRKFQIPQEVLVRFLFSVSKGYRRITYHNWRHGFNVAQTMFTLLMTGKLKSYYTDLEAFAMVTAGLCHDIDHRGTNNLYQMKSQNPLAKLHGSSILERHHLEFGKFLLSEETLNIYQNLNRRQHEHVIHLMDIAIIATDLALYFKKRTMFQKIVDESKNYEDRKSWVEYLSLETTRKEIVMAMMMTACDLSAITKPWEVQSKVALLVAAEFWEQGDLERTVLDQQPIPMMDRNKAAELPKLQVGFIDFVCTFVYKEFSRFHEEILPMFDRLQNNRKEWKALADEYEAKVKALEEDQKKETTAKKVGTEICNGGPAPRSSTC
Briefly: enzyme assay. Format: biochemical, bovine. Particulars: 1.0E-06 M.

A further series addresses T3, H4 (h) (Homo sapiens, UniProt Q9H3N8).
T3 construct: host or cells: HEK-293 cells
Format: binding. Particulars: 1.0E-06 M.

The target of the next series is T4, COX1 (h) (Homo sapiens, UniProt P23219).
T4 construct: Cerep (contract assay); host or cells: Sf9 cells
Put plainly: biochemical. Particulars: 1.0E-06 M.

“Also recorded” adds a separate entry of the source. Where two headings read alike, the source gives them in different places.

T4 sequence (P23219 24-599): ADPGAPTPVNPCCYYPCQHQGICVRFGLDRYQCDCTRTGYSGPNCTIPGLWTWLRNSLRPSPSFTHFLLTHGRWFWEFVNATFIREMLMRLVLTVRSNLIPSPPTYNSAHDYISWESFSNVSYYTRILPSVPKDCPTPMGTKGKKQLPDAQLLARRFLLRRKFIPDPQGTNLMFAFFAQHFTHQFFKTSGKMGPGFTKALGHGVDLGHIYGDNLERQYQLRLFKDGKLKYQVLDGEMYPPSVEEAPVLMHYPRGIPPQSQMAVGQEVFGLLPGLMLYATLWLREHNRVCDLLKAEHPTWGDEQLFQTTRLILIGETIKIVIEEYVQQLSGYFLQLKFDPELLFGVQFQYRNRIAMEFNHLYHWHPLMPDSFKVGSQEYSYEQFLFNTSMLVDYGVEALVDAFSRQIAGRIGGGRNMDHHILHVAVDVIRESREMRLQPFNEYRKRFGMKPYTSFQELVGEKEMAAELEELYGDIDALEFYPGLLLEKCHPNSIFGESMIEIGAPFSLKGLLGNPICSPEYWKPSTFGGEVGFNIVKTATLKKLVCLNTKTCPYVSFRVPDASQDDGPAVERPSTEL
T3 sequence (Q9H3N8 whole entry): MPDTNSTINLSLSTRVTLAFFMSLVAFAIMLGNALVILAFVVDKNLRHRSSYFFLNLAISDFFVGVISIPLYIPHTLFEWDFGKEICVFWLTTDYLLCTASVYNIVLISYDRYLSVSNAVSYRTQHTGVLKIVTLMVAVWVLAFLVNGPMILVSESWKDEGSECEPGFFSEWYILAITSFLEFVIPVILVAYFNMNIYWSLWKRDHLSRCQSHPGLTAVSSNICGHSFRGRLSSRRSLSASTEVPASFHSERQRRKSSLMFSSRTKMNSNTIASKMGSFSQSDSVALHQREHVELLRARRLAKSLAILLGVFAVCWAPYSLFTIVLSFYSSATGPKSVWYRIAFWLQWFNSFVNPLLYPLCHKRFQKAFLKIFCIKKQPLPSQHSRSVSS
Chain of κ (KOP) (P34975 whole entry): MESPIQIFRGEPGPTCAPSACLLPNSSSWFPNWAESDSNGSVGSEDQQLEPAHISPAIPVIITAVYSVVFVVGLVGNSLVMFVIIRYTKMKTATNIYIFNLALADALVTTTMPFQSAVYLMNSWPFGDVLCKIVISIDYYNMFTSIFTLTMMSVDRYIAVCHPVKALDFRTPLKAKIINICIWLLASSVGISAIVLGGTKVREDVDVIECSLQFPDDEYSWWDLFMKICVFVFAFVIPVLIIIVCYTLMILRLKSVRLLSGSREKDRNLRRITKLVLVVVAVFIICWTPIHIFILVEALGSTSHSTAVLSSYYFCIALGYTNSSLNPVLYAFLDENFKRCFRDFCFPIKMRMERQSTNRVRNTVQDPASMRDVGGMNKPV

Regarding `Cn1c(=O)n(CCCO)c(=O)c2c1nc(Oc1cccc(Cl)c1)n2Cc1ccc(Cl)cc1` [HC-070], the “number of open arm entries compared to vehicle” value in the series with C57/BL6 mice is reported as “increased open arm entries; also recorded: significantly increased”. Also, the concentration at 60 min in series [1] came to 0.782 ± 0.25 µM. In the series on C57BL/6J mice, the “CS-US fear learning (freezing)” value is reported as “without an effect; also recorded: did not affect fear learning”, the “fear memory expression to the CS” value is “no drug effect” and the “fear memory expression to the context” value is on record as “without effect; also recorded: no drug effect”.

For orientation: inhibition means the relative decrease from the control value, in per cent. Take `Cn1c(=O)n(CCCO)c(=O)c2c1nc(Oc1cccc(OC(F)(F)F)c1)n2Cc1ccc(Cl)cc1` [HC-608]: the inhibition at 1 µM on M4 (h) (read-out: % Inhibition 1st) is -16.1%; at M4 (h) (read-out: % Inhibition 2nd), 3.9%; on M4 (h) (read-out: % Inhibition Mean), -6.1%; on κ (KOP) (read-out: % Inhibition 1st), -8.1%; at κ (KOP) (read-out: % Inhibition 2nd), 1.1%; at κ (KOP) (read-out: % Inhibition Mean), -3.5%. Also, the inhibition at 1 µM was 25.3% on PDE6 (non-selective) (read-out: % Inhibition 1st); 8.8% on PDE6 (non-selective) (read-out: % Inhibition 2nd); 17% on PDE6 (non-selective) (read-out: % Inhibition Mean); -13.6% on H4 (h) (read-out: % Inhibition 1st); -1.9% at H4 (h) (read-out: % Inhibition 2nd); -7.8% on H4 (h) (read-out: % Inhibition Mean). Moreover, the inhibition at 1 µM was -1.5% at COX1 (h) (read-out: % Inhibition 1st), 27.2% at COX1 (h) (read-out: % Inhibition 2nd) and 12.9% at COX1 (h) (read-out: % Inhibition Mean). Moreover, the “% Inhibition 1st” value in [2] is on record as 28%. The “% Inhibition 2nd” value in series [2] was determined as 30.6%. Further, the “% Inhibition Mean” value in series [2] came to 29.3%.
